Data: patent US20140242174A1, “TREATING COUGH AND TUSSIVE ATTACKS” (VERONA PHARMA PLC, priority 2011, published 2014)

Assays:
[1] = test system: intractable, persistent cough due to interstitial lung disease; assay: Double blind, randomized, placebo-controlled, cross-over clinical study of inhaled carcainium chloride; assay type: in vivo, human
From the text: The aim of the clinical study was to determine the clinical effectiveness and safety of carcainium chloride by the inhaled route in hospital in-patients with intractable, persistent cough due to interstitial lung disease.
A double blind, randomized, placebo-controlled, cross-over study design was used to assess the effect of carcainium chloride as an anti-tussive in patients with interstitial lung disease.
The study was constructed as an adaptive contingency trial. In such a trial the outcome of each “test” of the drug against placebo is scored as either a positive or negative result (i.e. a binary decision, rather than a quantitative measure). Based on the outcome of this “test”, the trial either continues or halts. Patients attended two study visits where they were randomised to receive either: • carcainium chloride at a dose of 1.0 mg/kg on the first study visit followed by placebo (sodium chloride 0.9%) on the second visit; or • placebo (sodium chloride 0.9%) on the first visit followed by carcainium chloride at 1.0 mg/kg on the second visit.
Assessment of each patient was based on the following criteria. • 1 A physician's professional judgment of individual patient responses in a double blind crossover study with carcainium chloride and placebo in terms of anti-tussive action. • 2. Each patient's subjective comfort using a visual analogue scale (VAS), pre- and post-treatment. • 3. Each patient's coughs recorded in pre- and post-treatment periods for active and placebo treatments.
Carcainium chloride is a fine white dry powder and was provided in tightly closed vessels and stored in dark at room temperature upon receipt. The vehicle used for the dilution of carcainium chloride and for the placebo was 0.9% NaCl injection.
Patients were then administered the active or placebo sample, according to the above schedule, as an aerosol generated using an ultrasonic nebulizer (DeVilbiss Ultraneb).
In 8 out of 8 trials, the two physicians acting in concert successfully identified the active treatment carcainium chloride. The outcome of this assessment or “test” after each study treatment administered was either a success in which an ‘anti-tussive’ effect was observed (i.e. positive) or a failure which was defined as no change from baseline or pro-tussive effect (i.e. negative). The clinical investigator decided on a positive or negative outcome for each “test” in a blinded fashion. The statistical significance of this finding is <0.05 by contingency table, 0.05-0.01 by Chi square.
This was assessed on a 0-10 equal interval scale in the pre-drug and post-drug periods for active drug and placebo periods.
The frequency of cough (number per unit time) was recorded using a semi-automated system which records cough epochs (sounds) that are counted by a qualified technician.

[2] = LC/MS/MS measurement of carcainium chloride concentrations in human plasma; assay type: in vivo; conditions: patients administered 1 mg/kg carcainium chloride by inhalation; K2EDTA plasma
Experimental: A liquid chromatography/tandem mass spectrometry (LC/MS/MS) assay method was developed, qualified, and implemented for the quantitation of carcainium chloride levels in K2EDTA human plasma samples collected from the human clinical study detailed above.
Initially, carcainium chloride was dissolved in deionized water to provide an initial standard or quality control (QC) stock solution at a concentration of 1000 μg/mL. Serial dilutions were carried out with deionized water to provide secondary stock solutions for subsequent preparation of plasma calibration standards or QC samples according to Table 1 below. The internal standard lidocaine was dissolved in deionized water to provide an initial stock solution at a concentration of 1000 μg/mL. The initial internal standard stock solution was then serially diluted with deionized water to provide a spiking stock solution concentration of 50 ng/mL.
A 10 μL aliquot of calibration standard stock solution or QC stock solution was transferred into individual 16×100 mm screw cap glass test tubes. For blank and blank with internal standard samples, 10 μL of deionized water was transferred instead. Human blank K2EDTA plasma (100 μL) was then added to each tube. A 50 μL aliquot of lidocaine internal standard spiking stock solution was transferred to each tube except for blank samples. A 50 μL aliquot of deionized water was added to blank samples. […]

irritant-induced cough = conditions: healthy human volunteers; Phase II; cited from earlier work

C[N+](C)(CC(=O)Nc1ccccc1)CC(=O)Nc1ccccc1.[Cl-] [carcainium chloride, N,N-Bis-(phenylcarbamoylmethyl) dimethylammonium chloride]
Drug related adverse side effects in the human clinical study ([1]; 1 mg/kg inhaled): no significant drug related adverse side effects | Number of coughs recorded electronically (frequency of cough) ([1]; 1.0 mg/kg inhaled vs placebo, p=0.0007): statistically significant treatment effect | Patient comfort score (VAS, 0-10 scale), pre- and post-drug ([1]; 1.0 mg/kg inhaled vs placebo, p=0.0140 by sum of signed ranks): statistically significant improvement in patient well-being | Physician assessment: trials in which the two physicians successfully identified the active treatment (anti-tussive effect) ([1]; 1.0 mg/kg inhaled, ultrasonic nebulizer, vs placebo 0.9% NaCl, blinded, significance <0.05 by contingency table, 0.05-0.01 by Chi square): 8 out of 8 | Anti-tussive activity, summary of the clinical study ([1]; preliminary analysis, all three measures statistically significant): marked anti-tussive activity | Concentration of carcainium chloride in plasma samples [2]: 1 to 50 ng/mL | melting point: 177 to 178 °C | Ability to inhibit cough (increase of the amount of irritant required to induce cough) (irritant-induced cough): no statistically significant ability to inhibit cough
